Each molecule was assayed on Escherichia coli strain ATCC25922 (assay: standard microdilution assay to determine minimum inhibitory concentrations (MICs)). Conditions: Escherichia coli strain ATCC25922, microdilution.
Format: cell-based
Procedure, shortened: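 Broth microdilution per CLSI (M7-A8/M100-S20), 100 μl final volume, with reference-strain quality control; MIC is the lowest inhibitory concentration. Scored "+"/"−" against a 16 micrograms/ml cutoff, "N/A" where unavailable.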

Structure (SMILES)	E. coli ATCC25922 MIC
C[C@H](NCCCNC(=N)N)c1ccc(-n2cc3cc(-c4cc(CCCC(C)(C)N)cc(C(F)(F)F)c4)[nH]c3nc2=O)cc1 [Compound 318]	+ (a “+” indicates that the compound has an MIC value of 16 micrograms/ml or less)
N=C(N)NCCCNCc1ccc(-n2cc3cc(-c4cc(CCC5(CN)CC5)cc(C(F)(F)F)c4)[nH]c3nc2=O)cc1 [Compound 319]	+ (a “+” indicates that the compound has an MIC value of 16 micrograms/ml or less)
C[C@H](NCCCNC(=N)N)c1ccc(-n2cc3cc(-c4cc(CCC5(CN)CC5)cc(Cl)c4F)[nH]c3nc2=O)cc1 [Compound 320]	+ (a “+” indicates that the compound has an MIC value of 16 micrograms/ml or less)
C[C@H](N)CCCc1cc(Cl)c(OC(F)(F)F)c(-c2cc3cn(-c4ccc(CNCCCNC(=N)N)cc4)c(=O)nc3[nH]2)c1 [Compound 321]	+ (a “+” indicates that the compound has an MIC value of 16 micrograms/ml or less)
C[C@H](N)COCc1cc(-c2cc3cn(-c4ccc([C@H](C)NCCCNC(=N)N)cc4)c(=O)nc3[nH]2)cc(C(F)(F)F)c1 [Compound 322]	+ (a “+” indicates that the compound has an MIC value of 16 micrograms/ml or less)
C[C@H](N)COCc1cc(-c2cc3cn(-c4ccc(CNCCCNC(=N)N)cc4)c(=O)nc3[nH]2)cc(C(F)(F)F)c1 [Compound 323]	+ (a “+” indicates that the compound has an MIC value of 16 micrograms/ml or less)
N=C(N)NCCCNCc1ccc(-n2cc3cc(-c4cc(CC5CC(N)C5)cc(C(F)(F)F)c4)[nH]c3nc2=O)cc1 (stereo not drawn) [Compound 324]	+ (a “+” indicates that the compound has an MIC value of 16 micrograms/ml or less)
C[C@H](NCCCNC(=N)N)c1ccc(-n2cc3cc(-c4cc(CC5CC(N)C5)cc(C(F)(F)F)c4)[nH]c3nc2=O)cc1 (stereo partly drawn) [Compound 325]	+ (a “+” indicates that the compound has an MIC value of 16 micrograms/ml or less)
C[C@@H](CN)OCc1cc(SC(F)(F)F)cc(-c2cc3cn(-c4ccc(CNCCCNC(=N)N)cc4)c(=O)nc3[nH]2)c1 [Compound 326]	+ (a “+” indicates that the compound has an MIC value of 16 micrograms/ml or less)
C[C@H](NCCCNC(=N)N)c1ccc(-n2cc3cc(-c4cc(CO[C@@H](C)CN)cc(SC(F)(F)F)c4)[nH]c3nc2=O)cc1 [Compound 327]	+ (a “+” indicates that the compound has an MIC value of 16 micrograms/ml or less)

Same assay, conditions: Escherichia coli strain ATCC25922, standard microdilution assay

Structure (SMILES)	E. coli ATCC25922 MIC
N=C(N)NCCCNCc1ccc(-n2cc3cc(-c4cc(CC5CC(N)C5)cc(Cl)c4F)[nH]c3nc2=O)cc1 (stereo not drawn) [Compound 333]	+ (a “+” indicates that the compound has an MIC value of 16 micrograms/ml or less)
C[C@H](CCNC(=N)N)NCc1ccc(-n2cc3cc(-c4cc(CC5CC(N)C5)cc(Cl)c4F)[nH]c3nc2=O)cc1 (stereo partly drawn) [Compound 334]	+ (a “+” indicates that the compound has an MIC value of 16 micrograms/ml or less)
CC(C)(N)CCCc1cc(SC(F)(F)F)cc(-c2cc3cn(-c4ccc(CN)cc4)c(=O)nc3[nH]2)c1 [Compound 335]	+ (a “+” indicates that the compound has an MIC value of 16 micrograms/ml or less)
CC(CN)SCc1cc(SC(F)(F)F)cc(-c2cc3cn(-c4ccc(CNCCCNC(=N)N)cc4)c(=O)nc3[nH]2)c1 (stereo not drawn) [Compound 336]	+ (a “+” indicates that the compound has an MIC value of 16 micrograms/ml or less)
CC(CN)SCc1cc(SC(F)(F)F)cc(-c2cc3cn(-c4ccc(C(C)NCCCNC(=N)N)cc4)c(=O)nc3[nH]2)c1 (stereo not drawn) [Compound 337]	+ (a “+” indicates that the compound has an MIC value of 16 micrograms/ml or less)
CN(CCCNC(=N)N)Cc1ccc(-n2cc3cc(-c4cc(CCCCN)cc(C(F)(F)F)c4)[nH]c3nc2=O)cc1 [Compound 338]	+ (a “+” indicates that the compound has an MIC value of 16 micrograms/ml or less)
C[C@H](N)CCCc1cc(-c2cc3cn(-c4ccc(CN(C)CCCNC(=N)N)cc4)c(=O)nc3[nH]2)cc(C(F)(F)F)c1 [Compound 339]	+ (a “+” indicates that the compound has an MIC value of 16 micrograms/ml or less)
CC(N)CCCc1cc(CC(F)(F)F)cc(-c2cc3cn(-c4ccc(C(C)NCCCNC(=N)N)cc4)c(=O)nc3[nH]2)c1 (stereo not drawn) [Compound 340]	+ (a “+” indicates that the compound has an MIC value of 16 micrograms/ml or less)
CC[C@H](N)CCCc1cc(Cl)c(F)c(-c2cc3cn(-c4ccc(CNCCCNC(=N)N)cc4)c(=O)nc3[nH]2)c1 [Compound 341]	+ (a “+” indicates that the compound has an MIC value of 16 micrograms/ml or less)
N=C(N)NCCCNCc1ccc(-n2cc3cc(-c4cc(CCC[C@@H](N)CO)cc(Cl)c4F)[nH]c3nc2=O)cc1 [Compound 342]	+ (a “+” indicates that the compound has an MIC value of 16 micrograms/ml or less)
CC(N)CC=Cc1cc(Cl)c(F)c(-c2cc3cn(-c4ccc(C(C)NCCCNC(=N)N)cc4)c(=O)nc3[nH]2)c1 (stereo not drawn) [Compound 343]	+ (a “+” indicates that the compound has an MIC value of 16 micrograms/ml or less)
C[C@H](N)COCc1cc(SC(F)(F)F)cc(-c2cc3cn(-c4ccc(CNCCCNC(=N)N)cc4)c(=O)nc3[nH]2)c1 [Compound 344]	+ (a “+” indicates that the compound has an MIC value of 16 micrograms/ml or less)
CC(N)COCc1cc(SC(F)(F)F)cc(-c2cc3cn(-c4ccc(C(C)NCCCNC(=N)N)cc4)c(=O)nc3[nH]2)c1 (stereo not drawn) [Compound 345]	+ (a “+” indicates that the compound has an MIC value of 16 micrograms/ml or less)
CC(N)CCCc1cc(Cl)c(F)c(-c2cc3cn(-c4ccc(C(C)NCCCNC(N)=NCC5CC5)cc4)c(=O)nc3[nH]2)c1 (stereo not drawn) [Compound 346]	+ (a “+” indicates that the compound has an MIC value of 16 micrograms/ml or less)
CC(N)CCCc1cc(Cl)c(F)c(-c2cc3cn(-c4ccc(C(C)NCCCNC(N)=NCC5(C)COC5)cc4)c(=O)nc3[nH]2)c1 (stereo not drawn) [Compound 347]	+ (a “+” indicates that the compound has an MIC value of 16 micrograms/ml or less)
CN=C(N)NCCCNC(C)c1ccc(-n2cc3cc(-c4cc(CCCC(C)N)cc(Cl)c4F)[nH]c3nc2=O)cc1 (stereo not drawn) [Compound 348]	+ (a “+” indicates that the compound has an MIC value of 16 micrograms/ml or less)

Structure (SMILES)	E. coli ATCC25922 MIC
N=C(N)NCCCNCc1ccc(-n2cc3cc(-c4cc(CC5CC(CN)C5)cc(C(F)(F)F)c4)[nH]c3nc2=O)cc1 (stereo not drawn) [Compound 349]	+ (a “+” indicates that the compound has an MIC value of 16 micrograms/ml or less)
CC(NCCCNC(=N)N)c1ccc(-n2cc3cc(-c4cc(CC5CC(CN)C5)cc(C(F)(F)F)c4)[nH]c3nc2=O)cc1 (stereo not drawn) [Compound 350]	+ (a “+” indicates that the compound has an MIC value of 16 micrograms/ml or less)
C[C@H](N)c1ccc(-n2cc3cc(-c4cc(CCC5(CN)CC5)cc(C(F)(F)F)c4)[nH]c3nc2=O)cc1 [Compound 354]	− (a “−” indicates that the compound has an MIC value greater than 16 micrograms/ml)
C[C@H](N)CCCc1cc(OC(F)(F)F)cc(-c2cc3cn(-c4ccc(CN)cc4)c(=O)nc3[nH]2)c1 [Compound 355]	− (a “−” indicates that the compound has an MIC value greater than 16 micrograms/ml)
CC(N)CCCc1cc(OC(F)(F)F)cc(-c2cc3cn(-c4ccc(C(C)N)cc4)c(=O)nc3[nH]2)c1 (stereo not drawn) [Compound 356]	− (a “−” indicates that the compound has an MIC value greater than 16 micrograms/ml)
NCc1ccc(-n2cc3cc(-c4cc(CCC5(CN)CC5)cc(SC(F)(F)F)c4)[nH]c3nc2=O)cc1 [Compound 357]	− (a “−” indicates that the compound has an MIC value greater than 16 micrograms/ml)
C[C@H](N)c1ccc(-n2cc3cc(-c4cc(CCC5(CN)CC5)cc(SC(F)(F)F)c4)[nH]c3nc2=O)cc1 [Compound 358]	− (a “−” indicates that the compound has an MIC value greater than 16 micrograms/ml)
CCN=C(N)NCCCNC(C)c1ccc(-n2cc3cc(-c4cc(CCCC(C)N)cc(Cl)c4F)[nH]c3nc2=O)cc1 (stereo not drawn) [Compound 362]	+ (a “+” indicates that the compound has an MIC value of 16 micrograms/ml or less)
CC(N)CCCc1cc(Cl)c(F)c(-c2cc3cn(-c4ccc(C(C)NCCCNC(N)=NC(C)C)cc4)c(=O)nc3[nH]2)c1 (stereo not drawn) [Compound 364]	+ (a “+” indicates that the compound has an MIC value of 16 micrograms/ml or less)
CC(N)CCCc1cc(-c2cc3cn(-c4ccc(CNCCCCC(=N)N)cc4)c(=O)nc3[nH]2)cc(C(F)(F)F)c1 (stereo not drawn) [Compound 365]	− (a “−” indicates that the compound has an MIC value greater than 16 micrograms/ml)
CC(N)CCCc1cc(-c2cc3cn(-c4ccc(CN5CCCCC5=N)cc4)c(=O)nc3[nH]2)cc(C(F)(F)F)c1 (stereo not drawn) [Compound 366]	− (a “−” indicates that the compound has an MIC value greater than 16 micrograms/ml)
CC(N)CCCc1cc(Cl)c(F)c(-c2cc3cn(-c4ccc(C(C)NCCCNC(N)=NC5CCC5)cc4)c(=O)nc3[nH]2)c1 (stereo not drawn) [Compound 368]	+ (a “+” indicates that the compound has an MIC value of 16 micrograms/ml or less)
CC(N)CCCc1cccc(-c2cc3cn(-c4ccc(C(C)NCCCNC(=N)N)cc4)c(=O)nc3[nH]2)n1 (stereo not drawn) [Compound 369]	+ (a “+” indicates that the compound has an MIC value of 16 micrograms/ml or less)
CC(N)CCCc1cccc(-c2cc3cn(-c4ccc(CNCCCNC(=N)N)cc4)c(=O)nc3[nH]2)n1 (stereo not drawn) [Compound 370]	+ (a “+” indicates that the compound has an MIC value of 16 micrograms/ml or less)
C[C@H](N)c1ccc(-n2cc3cc(-c4cc(CCCC(C)(C)N)cc(SC(F)(F)F)c4)[nH]c3nc2=O)cc1 [Compound 371]	− (a “−” indicates that the compound has an MIC value greater than 16 micrograms/ml)
CC(C)(N)CCCc1cc(Cl)c(F)c(-c2cc3cn(-c4ccc(CN)cc4)c(=O)nc3[nH]2)c1 [Compound 372]	− (a “−” indicates that the compound has an MIC value greater than 16 micrograms/ml)
